# Where a SMILES comes first, the peptide text is derived from it. Bridges are numbered along the chain shown (N, C = ends). Where no end group is shown, it is not given here. The star is where a group is joined. FITC = O=C1OC2(c3ccc(O)cc3Oc3cc(O)ccc32)c2ccc(NC(=S)*)cc21; GABA = NCCCC(=O)O
# T1: integrin αvβ3 (Homo sapiens, UniProt P06756)
# T1 chain 1: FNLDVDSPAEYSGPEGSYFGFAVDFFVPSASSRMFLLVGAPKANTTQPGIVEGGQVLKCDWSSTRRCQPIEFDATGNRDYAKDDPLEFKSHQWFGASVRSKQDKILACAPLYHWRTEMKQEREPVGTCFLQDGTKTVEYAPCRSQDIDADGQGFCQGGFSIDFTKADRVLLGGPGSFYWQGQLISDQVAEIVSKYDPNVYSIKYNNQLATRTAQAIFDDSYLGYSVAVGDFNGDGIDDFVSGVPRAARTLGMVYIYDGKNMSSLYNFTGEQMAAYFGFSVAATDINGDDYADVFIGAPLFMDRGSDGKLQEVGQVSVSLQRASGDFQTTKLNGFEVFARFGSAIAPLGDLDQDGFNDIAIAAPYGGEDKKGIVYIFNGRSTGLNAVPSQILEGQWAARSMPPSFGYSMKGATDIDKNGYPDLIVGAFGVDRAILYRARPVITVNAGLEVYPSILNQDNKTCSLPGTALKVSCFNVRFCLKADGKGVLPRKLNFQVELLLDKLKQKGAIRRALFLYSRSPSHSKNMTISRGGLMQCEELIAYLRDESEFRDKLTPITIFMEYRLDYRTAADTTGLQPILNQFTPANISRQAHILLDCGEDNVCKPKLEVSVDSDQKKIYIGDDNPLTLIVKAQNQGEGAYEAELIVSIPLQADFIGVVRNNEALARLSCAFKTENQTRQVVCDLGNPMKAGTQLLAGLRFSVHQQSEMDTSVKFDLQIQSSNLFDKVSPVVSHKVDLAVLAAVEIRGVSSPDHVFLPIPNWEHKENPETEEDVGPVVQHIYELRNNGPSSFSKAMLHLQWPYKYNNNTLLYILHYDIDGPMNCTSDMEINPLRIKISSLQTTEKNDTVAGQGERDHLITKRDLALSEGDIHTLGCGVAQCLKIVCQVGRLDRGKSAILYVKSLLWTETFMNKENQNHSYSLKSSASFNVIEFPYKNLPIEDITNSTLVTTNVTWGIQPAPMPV
# T1 chain 2: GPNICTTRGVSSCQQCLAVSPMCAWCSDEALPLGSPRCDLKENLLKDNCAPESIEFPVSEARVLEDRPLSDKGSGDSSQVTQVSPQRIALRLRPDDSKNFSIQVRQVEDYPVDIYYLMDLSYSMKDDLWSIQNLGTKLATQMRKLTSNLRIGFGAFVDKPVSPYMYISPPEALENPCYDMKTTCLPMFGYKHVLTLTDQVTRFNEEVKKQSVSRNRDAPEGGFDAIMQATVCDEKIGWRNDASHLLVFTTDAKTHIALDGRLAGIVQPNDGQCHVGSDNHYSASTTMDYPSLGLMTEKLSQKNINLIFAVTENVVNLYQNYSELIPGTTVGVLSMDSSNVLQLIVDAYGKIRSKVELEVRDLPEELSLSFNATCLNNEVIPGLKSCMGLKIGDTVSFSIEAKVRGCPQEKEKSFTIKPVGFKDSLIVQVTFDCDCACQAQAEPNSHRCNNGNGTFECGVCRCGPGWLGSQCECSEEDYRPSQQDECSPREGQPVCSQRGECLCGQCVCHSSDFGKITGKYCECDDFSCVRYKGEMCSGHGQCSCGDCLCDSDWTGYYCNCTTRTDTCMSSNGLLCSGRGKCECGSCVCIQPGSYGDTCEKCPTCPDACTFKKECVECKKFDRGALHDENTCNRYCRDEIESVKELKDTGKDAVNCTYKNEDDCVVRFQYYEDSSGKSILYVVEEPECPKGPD
# Experiments:
# [1] = test system: B16F10 mouse melanoma cells; experiment: Immunofluorescence microscopy of cell binding and uptake; assay type: cell-based; details: 10 μM ALOS4-FITC, 37°C, confocal microscopy
# Description: Poly-L-lysine (1 h, 37°C; cat# P8920, Sigma-Aldrich) coated slides (cat# PEZGS0816, Merck) were washed 2x with PBS (pH 7.4), 1.5×10^4 B16F10 cells per well were seeded in RPMI (10% FCS) and allowed to incubate overnight (37°C, 5% CO2). ALOS4-FITC (10 μM) was added to slide wells up to 60 min (37°C, 5% CO2), then cells were fixed in paraformaldehyde (4%, 10 min). Following PBS washes (2x) and removal of excess buffer, cells were stained with a mounting medium containing DAPI (cat# H-1500, Vector Laboratories, Burlingame, CA). Slides were imaged by confocal microscopy.
# [2] = Weight of non-inoculated mice under daily treatment; assay type: in vivo, mouse; details: 16-week old C57BL/6, 0.3 mg/kg i.p. daily for 28 days; data not shown
# integrin αvβ3 [3] = molecular target: T1, integrin αvβ3; experiment: fluorescence plate saturation binding assay
# integrin αvβ3 [4] = molecular target: T1, integrin αvβ3; experiment: fluorescence competition binding assay with ALOS4-FITC
molecule,measurement,setting,value
CC(C)C[C@@H]1NC(=O)[C@H](CO)NC(=O)CNC(=O)[C@H](C)NC(=O)[C@H](CO)NC(=O)[C@H](CO)NC(=O)[C@@H](NC(=O)CCCNC(=S)Nc2ccc3c(c2)C(=O)OC32c3ccc(O)cc3Oc3cc(O)ccc32)CSSC[C@@H](C(=O)O)NC(=O)[C@H](Cc2ccccc2)NC1=O [ALOS4-FITC] ({FITC-GABA}-CSSAGSLFC-OH; disulfide 1-9),"association with cells, 10 min",[1]; 10 min,rapidly adheres to the cell surface
same,"translocation into cells, 30 min",[1]; 30 min,appears to translocate quickly to the cell cytoplasm
same,"intracellular localization, 60 min",[1]; up to 60 min,a majority of ALOS4-FITC migrated to the nuclear envelope and/or surrounding endoplasmic reticular membranes
CC(C)C[C@@H]1NC(=O)[C@H](CO)NC(=O)CNC(=O)[C@H](C)NC(=O)[C@H](CO)NC(=O)[C@H](CO)NC(=O)[C@@H](N)CSSC[C@@H](C(=O)O)NC(=O)[C@H](Cc2ccccc2)NC1=O [ALOS4] (H-CSSAGSLFC-OH; disulfide 1-9),"effect on animal weight, non-inoculated mice",[2],did not have any effect on animal weight
{FITC-ε‑Acp}-CSSAGSLFC (disulfide 1-9 (inferred)) [ALOS4-FITC],Kd,integrin αvβ3 [3],192 nM
CSSAGSLFC (disulfide 1-9 (inferred)) [ALOS4],Kd,integrin αvβ3 [4],2550 nM

# From publication PMC5325384, “Novel synthetic cyclic integrin αvβ3 binding peptide ALOS4: antitumor activity in mouse melanoma models” (Oncotarget, 2016)
